Where a name gives a salt, the structure may show the parent alone.

From patent US3948898A, “1,3-Dioxo-2-aminoalkyl-4,4-dimethyl-isoquinolines and salts thereof” (Boehringer Ingelheim GmbH, priority 1973, dated 1976) come the findings set out here.

The nature of data set [1]: hypotensive activity in anesthetized mongrel dogs (i.v.). Type of data set: in vivo. As to the method:
The test compounds were injected intravenously into the vena saphena in aqueous solution. The arterial bloodpressure was measured before and after administration in the arteria femoralis by means of a […]-pressure transducer and registered on a Grass-polygraph.

Data set [2] in a line: acute toxicity in mice after oral application (LD50). As to conditions: mouse, in vivo, p.o., observation time 14 days. As to the method:
The acute toxicity of the compounds was tested in mice (observation time: 14 days) after oral application. The LD50 was calculated from the percentage of the animals which died within the observation time after application of varying doses [see J. Pharmacol. exper. Therap.

As usually defined, the LD50 is the dose at which mortality reaches 50%. A lower LD50 goes with greater toxicity. On to `COc1ccccc1N1CCN(CCN2C(=O)c3ccccc3C(C)(C)C2=O)CC1.Cl.Cl` [A, 1-[4,4-dimethyl-1,3-dioxo-(2H,4H)-isoquinolin-2-yl]-2-[4-(2-methoxy-phenyl)-piperazin-1-yl]-ethane dihydrochloride], for which, in data set [1] (0.05 mg/kg i.v.), the “Decrease of bloodpressure diast.” value is -31 mm Hg, the “Decrease of bloodpressure syst.” value was -27 mm Hg and the Duration of activity is 53 min. For the same molecule, in data set [1] (0.1 mg/kg i.v.), the “Decrease of bloodpressure diast.” value was -34 mm Hg, the “Decrease of bloodpressure syst.” value is recorded as -33 mm Hg and the Duration of activity was 47 min. The molecule further gave a 50% lethal dose (LD50) at 336 h in data set [2] of 850 mg/kg.

Regarding `COc1ccc2c(c1)C(=O)N(CCCNCCc1ccc(OC)c(OC)c1)C(=O)C2(C)C` [B, 1-[4,4-dimethyl-7-methoxy-1,3-dioxo-(2H,4H)-isoquinolin-2-yl]-3-[2-(3,4-dimethoxy-phenyl)-ethylamine]propane hydrochloride], in data set [1] (0.5 mg/kg i.v.), the “Decrease of bloodpressure diast.” value is -36 mm Hg, the “Decrease of bloodpressure syst.” value was -32 mm Hg and the Duration of activity is 35 min. Also, in data set [1] (1.0 mg/kg i.v.), the “Decrease of bloodpressure diast.” value is recorded as -40 mm Hg, the “Decrease of bloodpressure syst.” value is reported as -36 mm Hg and the Duration of activity was 40 min. This molecule also displayed an LD50 at 336 h in data set [2] of 775 mg/kg.
